Legend:
[1] = molecular target: human IDO1 protease (Homo sapiens (Human), UniProt P14902); experiment: Inhibitory activity against human IDO1 protease (recombinant enzyme, kynurenine absorbance at 480 nm); format: biochemical; conditions: recombinant human IDO1, L-Tryptophan substrate, 30 min at 37° C.
Experimental: The inhibitory activity of extracorporal human IDO1 protease was tested through the following method. The inhibition effect of compounds of the present invention against the human IDO1 protease was determined through the method.
(1) Preparation of Human Recombinant IDO1 Protease
BL21 E. Coli were transformed with a correct sequences PET28a-hIDO1 vector. A single colony was inoculated in Luria-Bertani (LB) medium at 37° C. Bacterial cells were then collected through centrifugation. The cell pellets were sonicated, then centrifuged at 4° C. The supernatant was then collected and purified by Ni chromatography to give pure rhIDO1 protease.
(2) The Test of the Compounds
IDO1 enzymatic assay was carried out in a reaction mixture (500 μL/well) containing 50 mmol/L potassium phosphate buffer, 400 μg/mL catalase, 40 mmol/L ascorbic acid, 20 μmol/mL methylene blue, […] L-Tryptophan and the test compound. After the mixture was incubated for 3˜5 min at 37° C., recombinant human IDO1 was added to. The mixture was incubated for another 30 min at 37° C. and the reaction was stopped by adding 200 μL of 30% (w/v) trichloroacetic acid. After heating in a water bath pot at 65° C. for 15 min and centrifugation at 13800×g for 10 min. 100 μL of supernatant was transferred into a well of a 96-well microplate and mixed with the same volume of 2% (w/v) p-(dimethylamino)benzaldehyde in acetic acid. […]. When the color of the mixture became yellow, the mixture was measured for absorbance (D) value at 480 nm using microplate reader.
The inhibitory activity of compounds of the present invention against the human IDO1 protease was determined with the above test.

[2] = molecular target: IDO protease in HEK293 cell (Homo sapiens (Human), UniProt P14902); experiment: Inhibitory activity of IDO protease in HEK293 cell transfected with human IDO gene; format: cell-based; conditions: for IC50: HEK293 cells transfected with pcDNA3.1(+)-hIDO, compounds incubated for 5 hr; for inhibiting effect on IDO protease: result in words, tested by the above assay
Sequence of IDO protease in HEK293 cell (P14902 whole entry): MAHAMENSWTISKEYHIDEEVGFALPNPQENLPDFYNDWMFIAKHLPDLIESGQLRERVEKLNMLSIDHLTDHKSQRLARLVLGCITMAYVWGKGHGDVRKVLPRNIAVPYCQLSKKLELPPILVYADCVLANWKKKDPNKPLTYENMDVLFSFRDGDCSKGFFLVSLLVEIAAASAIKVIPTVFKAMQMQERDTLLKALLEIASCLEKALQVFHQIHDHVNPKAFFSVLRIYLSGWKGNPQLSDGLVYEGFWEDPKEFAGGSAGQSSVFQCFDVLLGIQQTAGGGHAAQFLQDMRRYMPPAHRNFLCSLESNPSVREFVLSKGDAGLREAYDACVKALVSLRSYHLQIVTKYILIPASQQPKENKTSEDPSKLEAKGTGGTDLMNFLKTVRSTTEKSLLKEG
Experimental: 2. Determination of the Inhibitory Activity of IDO Protease in HEK293 Cell
HEK293 cells were seeded in a 96-well microplate at a density of 2.5×10^4 cells/well and were maintained in DMEM (containing 10% fetal bovine serum, 50 U/mL penicillin and […] streptomycin) at 37° C. 24 hours later, HEK-293 cells were transfected with pcDNA3.1 (+)-hIDO vector carrying human IDO gene using Lipofectamine 2000. After 24 hr, the tested compounds were added to the cells and incubated for 5 hr. 140 μL of supernatant was transferred to a well in a new 96-well microplate. 10 μL of 30% (w/v) trichloroacetic acid was added to each sample-containing well and reaction was incubated at 65° C. for 15 min. The reaction mixture was centrifuged at 13000×g for 10 min. The supernatant was mixed with p-(dimethylamino)benzaldehydein acetic acid in the same volume. The yellow pigment derived from kynurenine was measured for absorbance (D) value at 480 nm using a microplate reader.
The inhibitory activity of compounds prepared in Example 1-19 against the IDO protease in HEK293 cell was determined with the above test.

Sequence of human IDO1 protease (P14902 whole entry): as above

Row | Compound | IC50 [1] | IC50 [2] | inhibiting effect on IDO protease [2]
1 | NS(=O)(=O)NCCC1CCC(CCNc2nonc2C(=NO)Nc2ccc(F)c(Br)c2)CC1 (centres unmarked) [Example 8, N-(3-bromo-4-fluorophenyl)-N′-hydroxy-4-((2-(4-(2-(sulfamoylamino)ethyl)cyclohexyl)ethyl)amino)-1,2,5-oxadiazole-3-carboximidamide] | 51 nM | 45 nM | 
2 | NS(=O)(=O)NCC1CCC(Nc2nonc2C(=NO)Nc2ccc(F)c(Br)c2)C1 (centres unmarked) [Example 14, N-(3-bromo-4-fluorophenyl)-N′-hydroxy-4-((3-((sulfamoylamino)methyl)cyclopentyl)amino)-1,2,5-oxadiazole-3-carboximidamide] | 108 nM | 48 nM | 
3 | N=C(Nc1ccc(F)c(Br)c1)c1nonc1NCCC1CCCC(CNS(N)(=O)=O)C1 (centres unmarked) [Compound 14] |  |  | showed the inhibiting effect
4 | NS(=O)(=O)NCC1CCC(CCNc2nonc2C(=NO)Nc2ccc(F)c(Br)c2)CC1 (centres unmarked) [Example 6, N-(3-bromo-4-fluorophenyl)-N′-hydroxy-4-((2-(4-((sulfamoylamino)methyl)cyclohexyl)ethyl)amino)-1,2,5-oxadiazole-3-carboximidamide] | 48 nM | 39 nM | 
5 | NS(=O)(=O)NCC[C@H]1CC[C@H](Nc2nonc2C(=NO)Nc2ccc(F)c(Br)c2)CC1 [Example 2, trans-N-(3-bromo-4-fluorophenyl)-N′-hydroxy-4-((4-(2-(sulfamoylamino)ethyl)cyclohexyl)amino)-1,2,5-oxadiazole-3-carboximidamide] | 46 nM | 36 nM | 
6 | NS(=O)(=O)NCC1CCCC(Nc2nonc2C(=NO)Nc2ccc(F)c(Br)c2)C1 (centres unmarked) [Example 9, N-(3-bromo-4-fluorophenyl)-N′-hydroxy-4-((3-((sulfamoylamino)methyl)cyclohexyl)amino)-1,2,5-oxadiazole-3-carboximidamide] | 64 nM | 27 nM | 
7 | N=C(Nc1ccc(F)c(Br)c1)c1nonc1NCC1CCCC(CCNS(N)(=O)=O)C1 (centres unmarked) [Compound 15] |  |  | showed the inhibiting effect
8 | NS(=O)(=O)NCCC1CCCC(Nc2nonc2C(=NO)Nc2ccc(F)c(Br)c2)C1 (centres unmarked) [Example 10, N-(3-bromo-4-fluorophenyl)-N′-hydroxy-4-((3-(2-(sulfamoylamino)ethyl)cyclohexyl)amino)-1,2,5-oxadiazole-3-carboximidamide] | 59 nM | 52 nM | 
9 | N=C(Nc1ccc(F)c(Br)c1)c1nonc1NC1CCC(CCNS(N)(=O)=O)C1 (centres unmarked) [Compound 17] |  |  | showed the inhibiting effect
10 | NS(=O)(=O)NC1CCC(CCNc2nonc2C(=NO)Nc2ccc(F)c(Br)c2)CC1 (centres unmarked) [Example 4, N-(3-bromo-4-fluorophenyl)-N′-hydroxy-4-((2-(4-(sulfamoylamino)cyclohexyl)ethyl)amino)-1,2,5-oxadiazole-3-carboximidamide] | 22 nM | 36 nM | 
11 | NS(=O)(=O)NCCC1CCC(CNc2nonc2C(=NO)Nc2ccc(F)c(Br)c2)CC1 (centres unmarked) [Example 7, N-(3-bromo-4-fluorophenyl)-N′-hydroxy-4-(((4-(2-(sulfamoylamino)ethyl)cyclohexyl)methyl)amino)-1,2,5-oxadiazole-3-carboximidamide] | 74 nM | 21 nM | 
12 | NS(=O)(=O)NC[C@H]1CC[C@H](Nc2nonc2C(=NO)Nc2ccc(F)c(Br)c2)CC1 [Example 1, trans-N-(3-bromo-4-fluorophenyl)-N′-hydroxy-4-((4-((sulfamoylamino)methyl)cyclohexyl)amino)-1,2,5-oxadiazole-3-carboximidamide] | 16 nM | 8 nM | 
13 | NS(=O)(=O)N[C@H]1CC[C@@H](Nc2nonc2C(=NO)Nc2ccc(F)c(Br)c2)CC1 [Example 19, cis-N-(3-bromo-4-fluorophenyl)-N′-hydroxy-4-(((1s,4s)-4-(sulfamoylamino)cyclohexyl)amino)-1,2,5-oxadiazole-3-carboximidamide] | 12 nM | 5 nM | 
14 | NS(=O)(=O)NCC1CCC(CNc2nonc2C(=NO)Nc2ccc(F)c(Br)c2)CC1 (centres unmarked) [Example 5, N-(3-bromo-4-fluorophenyl)-N′-hydroxy-4-(((4-((sulfamoylamino)methyl)cyclohexyl)methyl)amino)-1,2,5-oxadiazole-3-carboximidamide] | 45 nM | 14 nM | 
15 | NS(=O)(=O)NCCC1CCCC(CCNc2nonc2C(=NO)Nc2ccc(F)c(Br)c2)C1 (centres unmarked) [Compound 16] |  |  | showed the inhibiting effect
16 | NS(=O)(=O)NC1CCC(Nc2nonc2/C(=N/O)Nc2ccc(F)c(Br)c2)CC1 (centres unmarked) [Example 17, N-(3-bromo-4-fluorophenyl)-N′-hydroxy-4-((4-(sulfamoylamino)cyclohexyl)amino)-1,2,5-oxadiazole-3-carboximidamide] | 15 nM | 10 nM | 
17 | NS(=O)(=O)NC1CCCC(CCNc2nonc2C(=NO)Nc2ccc(F)c(Br)c2)C1 (centres unmarked) [Example 12, N-(3-bromo-4-fluorophenyl)-N′-hydroxy-4-((2-(3-(sulfamoylamino)cyclohexyl)ethyl)amino)-1,2,5-oxadiazole-3-carboximidamide] | 60 nM | 23 nM | 
18 | NS(=O)(=O)N[C@H]1CC[C@H](Nc2nonc2C(=NO)Nc2ccc(F)c(Br)c2)CC1 [Example 18, trans-N-(3-bromo-4-fluorophenyl)-N′-hydroxy-4-(((1r,4r)-4-(sulfamoylamino)yclohexyl)amino)-1,2,5-oxadiazole-3-carboximidamide] | 6 nM | 3 nM | 
19 | NS(=O)(=O)NC1CCN(Nc2nonc2C(=NO)Nc2ccc(F)c(Br)c2)CC1 [Example 15, N-(3-bromo-4-fluorophenyl)-N′-hydroxy-4-((4-(sulfamoylamino)piperidin-1-yl)amino)-1,2,5-oxadiazole-3-carboximidamide] | 83 nM | 37 nM | 
20 | NS(=O)(=O)NC1CCC(Nc2nonc2C(=NO)Nc2ccc(F)c(Br)c2)C1 (centres unmarked) [Example 16] | 63 nM | 42 nM | 
21 | NS(=O)(=O)NC1CCC(CNc2nonc2C(=NO)Nc2ccc(F)c(Br)c2)C1 (centres unmarked) [Compound 19] |  |  | showed the inhibiting effect
22 | NS(=O)(=O)N[C@H]1CC[C@H](CNc2nonc2C(=NO)Nc2ccc(F)c(Br)c2)CC1 [Example 3, Trans-N-(3-bromo-4-fluorophenyl)-N′-hydroxy-4-(((4-(sulfamoylamino)cyclohexyl)methyl)amino)-1,2,5-oxadiazole-3-carboximidamide] | 38 nM | 13 nM | 
23 | NS(=O)(=O)NC1CCCC(CNc2nonc2C(=NO)Nc2ccc(F)c(Br)c2)C1 (centres unmarked) [Example 11, N-(3-bromo-4-fluorophenyl)-N′-hydroxy-4-(((3-(sulfamoylamino)cyclohexyl)methyl)amino)-1,2,5-oxadiazole-3-carboximidamide] | 43 nM | 18 nM | 

Source: US10981882B1, “Compound for inhibiting IDO, a manufacturing method and a use thereof” (Shanghai JOYU Pharmatech Ltd., priority 2017, dated 2021)
